Data as given in US7745636B2, “Hepatitis C virus inhibitors” (Bristol-Myers Squibb Company, priority 2006, dated 2010).

Tested on: HCV 1b-377-neo replicon cells
Experiment: HCV Replicon assay, HCV 1b-377-neo replicon cells
Assay type: cell-based, HCV 1b genotype
Settings: Hepatitis C virus, Table 2, read-out: Range (EC50 against HCV 1b)
Protocol: An HCV Replicon assay was utilized in the present disclosure, and was prepared, conducted and validated as described in commonly owned PCT/US2006/022197 and in O'Boyle et. al. Antimicrob Agents Chemother. 2005 April; 49(4):1346-53.
HCV 1b-377-neo replicon cells were used to test the currently described compound series as well as cells resistant to compound A due to a Y2065H mutation in NS5A (described in application PCT/US2006/022197). The compounds tested were determined to have more than 10-fold less inhibitory activity on cells resistant to compound A than wild-type cells indicating a related mechanism of action between the two compound series. Thus, the compounds of the present disclosure can be effective to inhibit the function of the HCV NS5A protein and are understood to be as effective in combinations as previously described in application PCT/US2006/022197 and commonly owned WO/O4014852. Further, the compounds of the present disclosure can be effective against the HCV 1b genotype. It should also be understood that the compounds of the present disclosure can inhibit multiple genotypes of HCV. […] In one embodiment compounds of the present disclosure are active against the 1a, 1b, 2a, 2b, 3a, 4a, and 5a genotypes.

Structure (SMILES) | EC50
COC(=O)N[C@@H](C(=O)N[C@@H](C)c1ncc(-c2cnc(-c3ccc(-c4cnc([C@@H]5CCCN5C(=O)[C@H](NC(=O)OC)c5ccccc5)[nH]4)cc3)nc2)[nH]1)c1ccccc1 [Example 152j-17, methyl ((1R)-2-((2S)-2-(5-(4-(5-(2-((1S)-1-(((2R)-2-((methoxycarbonyl)amino)-2-phenylace-tyl)amino)eth-yl)-1H-imidazol-5-yl)-2-pyrimidinyl)phenyl)-1H-imidazol-2-yl)-1-pyrrolidinyl)-2-oxo-1-phenylethyl)carbamate] | 0.001 to 0.999 nM
COC(=O)N[C@@H](C(=O)N1CCC[C@H]1c1ncc(-c2cnc(-c3ncc(-c4cnc([C@@H]5CCCN5C(=O)[C@H](NC(=O)OC)c5ccccc5)[nH]4)cn3)nc2)[nH]1)c1ccccc1 [Example 153c-4, dimethyl (2,2′-bipyrimidine-5,5′-diylbis(1H-imidazole-5,2-diyl(2S)-2,1-pyrrolidinediyl((1R)-2-oxo-1-phenyl-2,1-ethanediyl))) biscarbamate] | 1000 to 10000 nM
C[C@H](NC(=O)[C@@H](c1ccccc1)N(C)C)c1ncc(-c2ccc(-c3ccc(-c4cnc([C@H](C)NC(=O)[C@@H](c5ccccc5)N(C)C)[nH]4)cn3)cc2)[nH]1 [Example 152j-24, (2R)-2-(dimethylamino)-N-((1S)-1-(5-(6-(4-(2-((1S)-1-(((2R)-2-(dimethylamino)-2-phenylace-tyl)amino)eth-yl)-1H-imidazol-5-yl)phenyl)-3-pyridinyl)-1H-imidazol-2-yl)ethyl)-2-phenylacetamide] | 0.001 to 0.999 nM
COC(=O)N[C@H](C(=O)N1CCC[C@H]1c1ncc(-c2ccc(-c3ccc(-c4cnc([C@@H]5CCCN5C(=O)[C@@H](NC(=O)OC)C(C)C)[nH]4)cc3CO)cc2)[nH]1)C(C)C [Example M119, methyl((1S)-1-(((2S)-2-(5-(2-(hydroxymethyl)-4′-(2-((2S)-1-((2S)-2-((methoxycarbonyl)amino)-3-methylbutanoyl)-2-pyrrolidinyl)-1H-imidazol-5-yl)-4-biphenylyl)-1H-imidazol-2-yl)-1-pyrrolidinyl)carbonyl)-2-methylpropyl)carbamate] | 100 to 999 nM
CCN(CC)[C@@H](C(=O)N1CCC[C@H]1c1ncc(-c2ccc(-c3ncc(-c4c[nH]c([C@@H]5CCCN5C(=O)[C@@H](NC(=O)OC)C(C)C)n4)cn3)cc2)[nH]1)c1ccccc1 [Example D76, methyl ((1S)-1-(((2S)-2-(5-(2-(4-(2-((2S)-1-((2R)-2-(diethylamino)-2-phenylacetyl)-2-pyrrolidinyl)-1H-imidazol-5-yl)phenyl)-5-pyrimidinyl)-1H-imidazol-2-yl)-1-pyrrolidinyl)carbonyl)-2-methylpropyl) carbamate] | 0.001 to 0.999 nM
COC(=O)N[C@H](C(=O)N1CCC[C@H]1c1ncc(-c2ccc(-c3ccc(-c4cnc([C@@H]5CCCN5C(=O)[C@@H](NC(=O)OC)C(C)C)[nH]4)cc3CN(C)C)cc2)[nH]1)C(C)C [Example M120, methyl((1S)-1-(((2S)-2-(5-(2-((dimethylamino)methyl)-4′-(2-((2S)-1-((2S)-2-((methoxycarbonyl)amino)-3-methylbutanoyl)-2-pyrrolidinyl)-1H-imidazol-5-yl)-4-biphenylyl)-1H-imidazol-2-yl)-1-pyrrolidinyl)carbonyl)-2-methylpropyl)carbamate] | 100 to 999 nM
COC(=O)N[C@@H](C(=O)N1CCC[C@H]1c1ncc(-c2ccc(-c3ccc(-c4cnc([C@@H]5CCCN5C(=O)[C@@H](c5ccccc5)N(C)C)[nH]4)cn3)cc2)[nH]1)c1ccccc1 [Example 140, methyl((1R)-2-((2S)-2-(5-(4-(5-(2-((2S)-1-((2R)-2-(dimethylamino)-2-phenylacetyl)-2-pyrrolidinyl)-1H-imidazol-5-yl)-2-pyridinyl)phenyl)-1H-imidazol-2-yl)-1-pyrrolidinyl)-2-oxo-1-phenylethyl)carbamate] | 0.001 to 0.999 nM
COC(=O)N[C@H](C(=O)N1CCC[C@H]1c1nc(-c2cnc(-c3ccc(-c4cnc([C@@H]5CCCN5C(=O)[C@@H](NC(=O)OC)C(C)C)[nH]4)cc3)nc2)c[nH]1)C(C)C [Example D74, methyl ((1S)-1-(((2S)-2-(5-(2-(4-(2-((2S)-1-((2S)-2-((methoxycarbonyl)amino)-3-methylbutanoyl)-2-pyrrolidinyl)-1H-imidazol-5-yl)phenyl)-5-pyrimidinyl)-1H-imidazol-2-yl)-1-pyrrolidinyl)carbonyl)-2-methylpropyl) carbamate] | 0.001 to 0.999 nM
COC(=O)N[C@@H](C(=O)N1CCC[C@H]1c1ncc(-c2ccc(-c3ncc(-c4cnc([C@@H]5CCCN5C(=O)[C@@H](c5ccccc5)N5CCCCC5)[nH]4)cn3)cc2)[nH]1)c1ccccc1 [Example 152l-3, methyl ((1R)-2-oxo-1-phenyl-2-((2S)-2-(4-(4-(5-(2-((2S)-1-((2R)-2-phenyl-2-(1-piperidinyl)acetyl)-2-pyrrolidinyl)-1H-imidazol-5-yl)-2-pyrimidinyl)phenyl)-1H-imidazol-2-yl)-1-pyrrolidinyl)ethyl) carbamate] | 0.001 to 0.999 nM
O=C([C@H](O)c1ccccc1)N1CCC[C@H]1c1ncc(-c2ccc(-c3ccc(-c4cnc([C@@H]5CCCN5C(=O)[C@H](O)c5ccccc5)[nH]4)cn3)cc2)[nH]1 [Example 133, (1R)-2-((2S)-2-(5-(6-(4-(2-((2S)-1-((2R)-2-hydroxy-2-phenylacetyl)-2-pyrrolidinyl)-1H-imidazol-5-yl)phenyl)-3-pyridinyl)-1H-imidazol-2-yl)-1-pyrrolidinyl)-2-oxo-1-phenylethanol] | 1 to 99 nM
COC(=O)N[C@@H](C(=O)N[C@@H](C)c1ncc(-c2cnc(-c3ccc(-c4cnc([C@@H]5CCCN5C(=O)[C@H](NC(=O)OC)c5ccccc5)[nH]4)cc3)cn2)[nH]1)c1ccccc1 [Example 152j-19, methyl ((1R)-2-((2S)-2-(5-(4-(5-(2-((1S)-1-(((2R)-2-((methoxycarbonyl)amino)-2-phenylace-tyl)amino)eth-yl)-1H-imidazol-5-yl)-2-pyrazinyl)phenyl)-1H-imidazol-2-yl)-1-pyrrolidinyl)-2-oxo-1-phenylethyl)carbamate] | 0.001 to 0.999 nM
COC(=O)N[C@@H](C(=O)N1CCC[C@H]1c1ncc(-c2ccc(-c3ccc(-c4cnc([C@@H]5CCCN5C(=O)N5CCOCC5)[nH]4)cn3)cc2)[nH]1)c1ccccc1 [Example 144, methyl((1R)-2-((2S)-2-(5-(4-(5-(2-((2S)-1-(4-morpholinylcarbonyl)-2-pyrrolidinyl)-1H-imidazol-5-yl)-2-pyridinyl)phenyl)-1H-imidazol-2-yl)-1-pyrrolidinyl)-2-oxo-1-phenylethyl)carbamate] | 0.001 to 0.999 nM
COC(=O)N[C@H](C(=O)N1CCC[C@H]1c1ncc(-c2cnc(-c3ccc(-c4[nH]c([C@@H]5CCCN5C(=O)[C@@H](NC(=O)OC)C5CC5)nc4C(F)(F)F)cc3)nc2)[nH]1)C1CC1 [Example J49, methyl ((1S)-1-cyclopropyl-2-((2S)-2-(5-(4-(5-(2-((2S)-1-((2S)-2-cyclopropyl-2-((methoxycarbonyl)amino)acetyl)-2-pyrrolidinyl)-1H-imidazol-5-yl)-2-pyrimidinyl)phenyl)-4-(trifluoromethyl)-1H-imidazol-2-yl)-1-pyrrolidinyl)-2-oxoethyl)carbamate] | 0.001 to 0.999 nM
COC(=O)N[C@@H](C(=O)N1CCC[C@H]1c1ncc(-c2ccc(-c3ccc(-c4cnc([C@@H]5CCCN5C(=O)[C@H](NC(=O)OC)c5ccccc5)[nH]4)cn3)cc2)[nH]1)c1ccccc1 [Example 134, methyl ((1R)-2-((2S)-2-(5-(6-(4-(2-((2S)-1-((2R)-2-((methoxycarbonyl)amino)-2-phenylacetyl)-2-pyrrolidinyl)-1H-imidazol-5-yl)phenyl)-3-pyridinyl)-1H-imidazol-2-yl)-1-pyrrolidinyl)-2-oxo-1-phenylethyl)carbamate] | 0.001 to 0.999 nM
COC(=O)N[C@@H](C(=O)N[C@@H](C)c1ncc(-c2ccc(-c3ccc(-c4cnc([C@H](C)NC(=O)[C@H](NC(=O)OC)c5ccccc5)[nH]4)cn3)nc2)[nH]1)c1ccccc1 [Example 153c-7, dimethyl (2,2′-bipyridine-5,5′-diylbis(1H-imidazole-5,2-diyl(1S)-1,1-ethanediylimino((1R)-2-oxo-1-phenyl-2,1-ethanediyl))) biscarbamate] | 1 to 99 nM
COC(=O)N[C@@H](C(=O)N1CCC[C@H]1c1ncc(-c2ccc(-c3ccc(-c4cnc([C@@H]5CCCN5C(=O)[C@H](NC(=O)OC)c5ccccc5)[nH]4)nn3)nn2)[nH]1)c1ccccc1 [Example 153c-2, dimethyl (3,3′-bipyridazine-6,6′-diylbis(1H-imidazole-5,2-diyl(2S)-2,1-pyrrolidinediyl((1R)-2-oxo-1-phenyl-2,1-ethanediyl))) biscarbamate] | 1 to 99 nM

Same assay, conditions: Table 2, read-out: Range (EC50 against HCV 1b)

Structure (SMILES) | EC50
COC(=O)NC(C(=O)NC(C)c1ncc(-c2ccc(-c3ccc(-c4cnc(C5CCCN5C(=O)C(NC(=O)OC)C(C)OC)[nH]4)cc3)cc2)[nH]1)C(C)OC (stereo not shown) [Example R27] | 0.001 to 0.999 nM
CCC(CC)[C@H](NC(=O)OC)C(=O)O [OL-5] | 0.001 to 0.999 nM
CC(C)[C@H](NC(=O)OC(C)(C)C)c1ncc(-c2ccc(-c3ccc(-c4cnc([C@@H](NC(=O)OC(C)(C)C)C(C)C)[nH]4)cc3)cc2)[nH]1 [Example 3] | 0.001 to 0.999 nM
